The text below walks through data of ChEMBL document CHEMBL1150976, “The selectivity of protein kinase inhibitors: a further update” (Biochem J, 2007).

In assay [1] the target is Mitogen-activated protein kinase 1 (Homo sapiens) (UniProt P28482). Put plainly: Percentage ERK2 activity remaining in the presence of 0.01uM inhibitor.
The target of assay [2] is RAC-beta serine/threonine-protein kinase (Homo sapiens) (UniProt P31751). Put plainly: Percentage PKBbeta activity remaining in the presence of 25uM inhibitor.
The species entered for the next assay is Rattus norvegicus. Put plainly: Percentage AMPK activity remaining in the presence of 25uM inhibitor.
The target in assay [3] is T1, Aurora kinase C (Homo sapiens) (UniProt Q9UQB9).
T1 sequence (whole entry): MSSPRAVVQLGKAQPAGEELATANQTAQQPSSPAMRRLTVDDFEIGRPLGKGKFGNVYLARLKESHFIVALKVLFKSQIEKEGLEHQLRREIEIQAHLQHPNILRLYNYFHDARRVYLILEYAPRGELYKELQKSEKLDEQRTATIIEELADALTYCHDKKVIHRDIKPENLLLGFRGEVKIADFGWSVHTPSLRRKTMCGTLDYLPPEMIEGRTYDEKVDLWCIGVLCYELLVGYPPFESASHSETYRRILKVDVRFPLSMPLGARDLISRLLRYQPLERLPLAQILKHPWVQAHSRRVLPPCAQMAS
Put plainly: Percentage Aurora C activity remaining in the presence of 25uM inhibitor.

Assay [4] addresses MAP kinase-activated protein kinase 3 (Homo sapiens) (UniProt Q16644). The assay can be described thus: Percentage MAPKAPK3 activity remaining in the presence of […]uM inhibitor. Particulars: at 25 µM.
The target of assay [5] is Ribosomal protein S6 kinase alpha-3 (Homo sapiens) (UniProt P51812). Put plainly: Percentage RSK2 activity remaining in the presence of 25uM inhibitor.
Assay [6] deals with Serine/threonine-protein kinase PAK 4 (Homo sapiens, UniProt O96013). Put plainly: Percentage PAK4 activity remaining in the presence of 25uM inhibitor.
Serine/threonine-protein kinase PAK 4, sequence (O96013 whole entry, looked up): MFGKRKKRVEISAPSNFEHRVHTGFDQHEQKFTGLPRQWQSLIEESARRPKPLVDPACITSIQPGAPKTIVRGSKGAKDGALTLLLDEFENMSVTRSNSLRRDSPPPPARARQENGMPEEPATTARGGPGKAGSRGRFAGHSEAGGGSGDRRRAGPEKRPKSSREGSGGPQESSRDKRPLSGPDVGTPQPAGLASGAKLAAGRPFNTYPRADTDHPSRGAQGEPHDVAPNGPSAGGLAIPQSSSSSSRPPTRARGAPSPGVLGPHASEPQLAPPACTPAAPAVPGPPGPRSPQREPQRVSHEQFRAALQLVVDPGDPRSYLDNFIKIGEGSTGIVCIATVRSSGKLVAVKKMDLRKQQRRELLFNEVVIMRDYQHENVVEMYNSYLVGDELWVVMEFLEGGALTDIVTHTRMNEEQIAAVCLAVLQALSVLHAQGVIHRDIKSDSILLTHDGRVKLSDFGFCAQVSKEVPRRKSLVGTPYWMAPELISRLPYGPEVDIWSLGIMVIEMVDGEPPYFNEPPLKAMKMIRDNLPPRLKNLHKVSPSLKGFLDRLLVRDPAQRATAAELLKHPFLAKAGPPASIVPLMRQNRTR
In assay [7] the target is Proto-oncogene tyrosine-protein kinase Src (Gallus gallus) (UniProt P00523). Put plainly: Percentage Src activity remaining in the presence of 25uM inhibitor.
The target of assay [8] is T2, Serine/threonine-protein kinase BRSK2 (Homo sapiens) (UniProt Q8IWQ3).
T2 sequence (whole entry): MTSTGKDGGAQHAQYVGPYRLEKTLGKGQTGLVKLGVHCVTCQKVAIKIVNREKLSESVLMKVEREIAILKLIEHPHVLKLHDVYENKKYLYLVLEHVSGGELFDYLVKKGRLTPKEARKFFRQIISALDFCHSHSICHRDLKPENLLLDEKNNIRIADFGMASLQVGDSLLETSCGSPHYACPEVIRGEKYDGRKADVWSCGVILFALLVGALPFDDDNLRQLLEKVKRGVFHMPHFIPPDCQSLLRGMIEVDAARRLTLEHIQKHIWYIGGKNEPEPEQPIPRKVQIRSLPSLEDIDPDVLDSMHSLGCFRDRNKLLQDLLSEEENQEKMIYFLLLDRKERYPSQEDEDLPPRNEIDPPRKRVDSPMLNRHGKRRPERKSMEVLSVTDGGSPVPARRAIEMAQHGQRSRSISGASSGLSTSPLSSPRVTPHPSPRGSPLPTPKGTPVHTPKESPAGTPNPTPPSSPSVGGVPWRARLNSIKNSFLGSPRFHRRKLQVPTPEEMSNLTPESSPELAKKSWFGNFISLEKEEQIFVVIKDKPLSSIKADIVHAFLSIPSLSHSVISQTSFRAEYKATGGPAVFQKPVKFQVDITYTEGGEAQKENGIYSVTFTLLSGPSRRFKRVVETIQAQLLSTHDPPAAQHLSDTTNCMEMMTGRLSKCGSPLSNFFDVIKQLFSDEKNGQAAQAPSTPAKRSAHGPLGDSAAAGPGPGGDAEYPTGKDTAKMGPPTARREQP
The assay can be described thus: Percentage BRSK2 activity remaining in the presence of 25uM inhibitor.

The target in assay [9] is Mitogen-activated protein kinase 3 (Homo sapiens) (UniProt P27361). The assay can be described thus: Percentage ERK1 activity remaining in the presence of 25uM inhibitor.
Mitogen-activated protein kinase 3 (Homo sapiens), sequence (P27361 whole entry): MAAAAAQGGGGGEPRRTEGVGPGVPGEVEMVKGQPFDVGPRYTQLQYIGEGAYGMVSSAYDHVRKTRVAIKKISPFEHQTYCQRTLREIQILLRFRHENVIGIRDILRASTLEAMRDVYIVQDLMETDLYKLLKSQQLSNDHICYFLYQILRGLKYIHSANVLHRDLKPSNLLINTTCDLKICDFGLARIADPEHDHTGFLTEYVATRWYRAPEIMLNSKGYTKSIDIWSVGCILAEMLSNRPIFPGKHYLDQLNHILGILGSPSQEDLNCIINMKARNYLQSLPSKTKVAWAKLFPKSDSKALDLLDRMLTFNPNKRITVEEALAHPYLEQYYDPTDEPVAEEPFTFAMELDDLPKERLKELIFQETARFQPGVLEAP
Assay [10] addresses Glycogen synthase kinase-3 beta (Homo sapiens, UniProt P49841). The assay can be described thus: Percentage GSK3-beta activity remaining in the presence of 25uM inhibitor.
In assay [11] the target is Serine/threonine-protein kinase Nek6 (Homo sapiens) (UniProt Q9HC98). The assay can be described thus: Percentage NEK6 activity remaining in the presence of 25uM inhibitor.
For assay [12], the target named is T3, Myosin light chain kinase, smooth muscle (Homo sapiens, UniProt Q15746). Put plainly: Percentage SmMLCK activity remaining in the presence of 25uM inhibitor.
T3 sequence (Q15746 whole entry): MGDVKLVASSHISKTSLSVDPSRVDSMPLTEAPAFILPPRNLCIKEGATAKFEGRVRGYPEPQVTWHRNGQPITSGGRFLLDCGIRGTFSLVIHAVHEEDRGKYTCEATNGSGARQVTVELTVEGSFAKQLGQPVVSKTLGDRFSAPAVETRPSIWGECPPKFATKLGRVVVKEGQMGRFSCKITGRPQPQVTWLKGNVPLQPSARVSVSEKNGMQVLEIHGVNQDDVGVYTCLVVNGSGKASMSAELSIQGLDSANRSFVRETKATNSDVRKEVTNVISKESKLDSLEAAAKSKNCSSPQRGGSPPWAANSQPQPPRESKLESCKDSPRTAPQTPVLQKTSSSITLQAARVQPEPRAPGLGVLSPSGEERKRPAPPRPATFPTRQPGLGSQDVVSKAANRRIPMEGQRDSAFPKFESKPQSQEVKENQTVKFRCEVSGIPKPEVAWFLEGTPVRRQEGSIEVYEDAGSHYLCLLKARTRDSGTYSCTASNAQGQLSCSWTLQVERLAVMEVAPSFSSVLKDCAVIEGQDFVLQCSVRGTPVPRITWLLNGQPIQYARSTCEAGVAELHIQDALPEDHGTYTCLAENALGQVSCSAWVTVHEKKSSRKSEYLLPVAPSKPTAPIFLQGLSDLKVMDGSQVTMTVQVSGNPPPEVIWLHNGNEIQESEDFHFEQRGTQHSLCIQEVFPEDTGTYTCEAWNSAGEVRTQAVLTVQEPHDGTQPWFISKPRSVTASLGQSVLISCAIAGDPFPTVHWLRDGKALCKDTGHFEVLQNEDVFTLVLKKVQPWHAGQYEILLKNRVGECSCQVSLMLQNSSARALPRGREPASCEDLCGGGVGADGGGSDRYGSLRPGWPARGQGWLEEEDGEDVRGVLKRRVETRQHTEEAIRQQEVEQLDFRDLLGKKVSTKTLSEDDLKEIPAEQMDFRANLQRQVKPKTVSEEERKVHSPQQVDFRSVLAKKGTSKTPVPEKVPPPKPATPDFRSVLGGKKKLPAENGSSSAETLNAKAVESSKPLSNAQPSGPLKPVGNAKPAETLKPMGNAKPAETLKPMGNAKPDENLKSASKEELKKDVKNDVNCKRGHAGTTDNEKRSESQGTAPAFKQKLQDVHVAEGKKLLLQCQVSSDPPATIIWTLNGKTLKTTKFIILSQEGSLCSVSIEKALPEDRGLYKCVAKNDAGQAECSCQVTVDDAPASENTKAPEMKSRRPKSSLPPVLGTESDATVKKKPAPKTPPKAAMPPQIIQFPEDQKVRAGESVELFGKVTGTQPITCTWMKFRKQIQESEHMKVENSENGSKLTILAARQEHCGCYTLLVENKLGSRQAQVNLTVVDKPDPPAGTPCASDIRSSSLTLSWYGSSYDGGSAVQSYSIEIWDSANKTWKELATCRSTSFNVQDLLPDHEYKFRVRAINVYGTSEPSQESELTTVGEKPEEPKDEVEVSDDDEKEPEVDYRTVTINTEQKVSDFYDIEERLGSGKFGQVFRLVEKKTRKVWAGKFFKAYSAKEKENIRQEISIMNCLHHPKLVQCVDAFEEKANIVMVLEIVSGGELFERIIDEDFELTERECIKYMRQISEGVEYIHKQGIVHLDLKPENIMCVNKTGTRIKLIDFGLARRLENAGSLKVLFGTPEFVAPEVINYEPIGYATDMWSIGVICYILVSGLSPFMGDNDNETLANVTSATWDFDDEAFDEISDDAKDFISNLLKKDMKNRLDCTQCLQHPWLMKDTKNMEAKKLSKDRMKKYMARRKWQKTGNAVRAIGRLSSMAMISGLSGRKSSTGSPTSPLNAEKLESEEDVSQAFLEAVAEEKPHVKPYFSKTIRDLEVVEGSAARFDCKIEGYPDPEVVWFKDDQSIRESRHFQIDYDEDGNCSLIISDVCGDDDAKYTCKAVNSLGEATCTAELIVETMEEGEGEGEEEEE
For assay [13], the target named is Cyclin-dependent kinase 2/cyclin A (Homo sapiens) (UniProt P24941+P20248+P78396). The assay can be described thus: Percentage CDK2-cyclinA activity remaining in the presence of 25uM inhibitor. The format is protein-complex assay.
Assay [14] deals with Serine/threonine-protein kinase N2 (Homo sapiens) (UniProt Q16513). Put plainly: Percentage PRK2 activity remaining in the presence of 25uM inhibitor.
Serine/threonine-protein kinase N2 (Homo sapiens), sequence (Q16513 whole entry, looked up): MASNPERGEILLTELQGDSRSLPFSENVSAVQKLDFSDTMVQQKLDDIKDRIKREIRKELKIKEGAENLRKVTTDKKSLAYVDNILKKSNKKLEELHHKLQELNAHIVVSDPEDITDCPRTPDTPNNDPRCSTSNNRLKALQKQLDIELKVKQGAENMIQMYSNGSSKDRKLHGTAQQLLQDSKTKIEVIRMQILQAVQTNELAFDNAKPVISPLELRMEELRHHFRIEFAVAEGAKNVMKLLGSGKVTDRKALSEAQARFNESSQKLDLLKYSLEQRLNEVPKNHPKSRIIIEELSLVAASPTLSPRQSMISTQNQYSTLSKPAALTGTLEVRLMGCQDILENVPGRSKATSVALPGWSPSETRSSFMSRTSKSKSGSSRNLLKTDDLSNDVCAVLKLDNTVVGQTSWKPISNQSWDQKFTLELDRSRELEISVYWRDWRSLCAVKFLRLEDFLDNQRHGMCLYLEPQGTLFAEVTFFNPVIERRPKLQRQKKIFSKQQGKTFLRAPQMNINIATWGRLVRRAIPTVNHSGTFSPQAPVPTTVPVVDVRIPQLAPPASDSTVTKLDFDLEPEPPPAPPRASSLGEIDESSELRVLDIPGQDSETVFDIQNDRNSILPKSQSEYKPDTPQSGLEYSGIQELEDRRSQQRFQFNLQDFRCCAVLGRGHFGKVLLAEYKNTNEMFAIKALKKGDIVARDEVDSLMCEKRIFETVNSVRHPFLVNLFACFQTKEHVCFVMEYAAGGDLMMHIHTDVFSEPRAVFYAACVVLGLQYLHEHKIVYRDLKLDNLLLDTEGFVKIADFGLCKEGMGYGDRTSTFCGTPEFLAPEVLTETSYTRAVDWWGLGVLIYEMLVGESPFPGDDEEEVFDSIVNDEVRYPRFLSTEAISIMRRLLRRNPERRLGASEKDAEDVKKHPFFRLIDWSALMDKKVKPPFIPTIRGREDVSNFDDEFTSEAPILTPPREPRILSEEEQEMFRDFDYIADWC
Assay [15] concerns the target Casein kinase II (Homo sapiens) (UniProt P67870+P68400+P19784). The assay can be described thus: Percentage CK2 activity remaining in the presence of 25uM inhibitor. The format is protein-complex assay.
Assay [16] addresses T3, Myosin light chain kinase, smooth muscle. The assay can be described thus: Percentage SmMLCK activity remaining in the presence of 0.01uM inhibitor.
Assay [17] has as its target T4, Serine/threonine-protein kinase Nek2 (Homo sapiens) (UniProt P51955).
T4 sequence (whole entry): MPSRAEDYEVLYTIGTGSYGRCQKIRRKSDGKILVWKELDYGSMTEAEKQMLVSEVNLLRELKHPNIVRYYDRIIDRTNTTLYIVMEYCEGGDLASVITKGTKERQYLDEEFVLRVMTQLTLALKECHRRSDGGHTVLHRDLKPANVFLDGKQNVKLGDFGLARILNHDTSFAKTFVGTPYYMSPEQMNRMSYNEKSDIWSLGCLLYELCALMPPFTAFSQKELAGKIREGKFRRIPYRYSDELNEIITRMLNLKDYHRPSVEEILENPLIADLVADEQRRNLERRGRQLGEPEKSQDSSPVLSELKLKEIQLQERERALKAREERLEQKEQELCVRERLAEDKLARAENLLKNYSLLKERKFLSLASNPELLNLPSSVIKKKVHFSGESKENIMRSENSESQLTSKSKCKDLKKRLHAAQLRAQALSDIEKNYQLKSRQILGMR
Put plainly: Percentage NEK2a activity remaining in the presence of 0.01uM inhibitor.

MAP kinase-activated protein kinase 3 (Homo sapiens), sequence (Q16644 whole entry, looked up): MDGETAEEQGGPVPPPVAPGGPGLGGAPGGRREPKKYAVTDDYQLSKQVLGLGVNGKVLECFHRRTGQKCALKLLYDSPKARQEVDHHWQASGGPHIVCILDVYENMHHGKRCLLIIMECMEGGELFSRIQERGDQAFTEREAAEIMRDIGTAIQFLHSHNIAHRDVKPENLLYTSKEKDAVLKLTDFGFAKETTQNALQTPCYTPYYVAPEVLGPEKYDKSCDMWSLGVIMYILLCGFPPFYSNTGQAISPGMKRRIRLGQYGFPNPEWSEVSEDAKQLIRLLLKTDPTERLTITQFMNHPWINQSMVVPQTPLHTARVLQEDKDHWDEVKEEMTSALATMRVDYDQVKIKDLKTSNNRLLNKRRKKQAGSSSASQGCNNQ
Mitogen-activated protein kinase 1 (Homo sapiens), sequence (P28482 whole entry): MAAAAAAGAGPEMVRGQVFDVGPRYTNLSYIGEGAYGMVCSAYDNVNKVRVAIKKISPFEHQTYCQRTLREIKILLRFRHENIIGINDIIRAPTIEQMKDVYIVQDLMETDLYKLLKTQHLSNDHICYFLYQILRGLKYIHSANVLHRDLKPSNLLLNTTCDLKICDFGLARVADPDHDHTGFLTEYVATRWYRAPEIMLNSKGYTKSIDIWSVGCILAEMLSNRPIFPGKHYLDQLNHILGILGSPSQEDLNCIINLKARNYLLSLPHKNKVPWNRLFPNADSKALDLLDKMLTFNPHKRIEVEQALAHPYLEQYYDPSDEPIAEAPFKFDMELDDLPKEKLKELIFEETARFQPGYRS
Glycogen synthase kinase-3 beta, sequence (P49841 whole entry, looked up): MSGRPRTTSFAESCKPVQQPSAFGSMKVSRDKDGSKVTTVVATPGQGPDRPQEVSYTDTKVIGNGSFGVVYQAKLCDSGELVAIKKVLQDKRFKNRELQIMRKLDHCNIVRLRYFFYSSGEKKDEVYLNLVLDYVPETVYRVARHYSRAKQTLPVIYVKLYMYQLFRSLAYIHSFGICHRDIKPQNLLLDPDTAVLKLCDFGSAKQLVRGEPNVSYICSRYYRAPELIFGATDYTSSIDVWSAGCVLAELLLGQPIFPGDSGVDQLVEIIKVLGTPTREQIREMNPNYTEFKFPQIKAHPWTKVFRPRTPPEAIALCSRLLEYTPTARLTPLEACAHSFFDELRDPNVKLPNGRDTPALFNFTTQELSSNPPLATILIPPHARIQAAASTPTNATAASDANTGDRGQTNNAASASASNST

`Cc1n[nH]c2ccc(-c3cncc(OC[C@@H](N)Cc4c[nH]c5ccccc45)c3)cc12`: the Activity in [1] was found to be 78%.
Consider `COc1cc(OC)c(/C=C2/C(=O)Nc3ccccc32)c(OC)c1`, for which the Activity in assay [2] stood at 90%; in the assay filed under Rattus norvegicus it was 71%; in [3] it was 94%; in assay [4] it was 94%; in assay [5], 89%; in assay [6], 84%. Further, the Activity amounted to 70% in [7]; 88% in assay [8]; 91% in assay [9]; 74% in [10]; 95% in assay [11]; 70% in assay [12]. Further, the Activity is 83% in [13], 87% in [14] and 97% in [15].
As for `O=C(NCCCNc1nc(Nc2cccc(NC(=O)N3CCCC3)c2)ncc1I)c1cccs1`, the results for the Activity in assay [16], in assay [1] and in assay [17] were 110%, 88% and 92%, respectively.
On to `NCCNS(=O)(=O)c1ccc(Cl)c2ccncc12`, for which the Activity was 89% in assay [2]; 29% in the assay listed under Rattus norvegicus (filed as antagonist); 95% in assay [3]; 86% in [4]; 63% in [5]; 88% in assay [6]. The Activity in assay [7] was 92%; in [8] (filed as antagonist), 42%; in assay [9], 102%; in [10], 75%; in assay [11], 90%; in assay [12], 84%. For the same compound, the Activity in [13] was 62%; in assay [14] (filed as antagonist), 47%; in assay [15], 65%.
Turning to `CN[C@@H]1C[C@H]2O[C@@](C)([C@@H]1OC)n1c3ccccc3c3c4c(c5c6ccccc6n2c5c31)C(=O)N[C@H]4O` (stereo in doubt), the Activity in assay [16] was found to be 83%; in [17], 85%.
